{"source": "patent US7740835B2", "about": "“Anaerobic bacterium as a drug for cancer gene therapy” (Anaeropharma Science Inc., priority 2000, dated 2010)", "system": "Lewis lung cancer cells", "assay": "Growth of B. longum in tumor tissues by administering lacturose", "format": "in vivo, mice", "details": "B. longum 105-A administered; 1 ml of 20 t lacturose solution intraperitoneally for 8 successive days; analysed on the 9th day", "description": "Lacturose (provided by Nikken Chemicals Co., Ltd.) is a synthetic saccharide not occurring in nature, and it is known that lacturose cannot be metabolized by humans, mice and pigs (Biochem. Biophys. Acta, 110, 635 (1965), Pediatrics, 32, 1033 (1963), Gastroenterology, 47, 26 (1964), Die Nahrung, 11, 39 (1967)). On the other hand, B. longum is capable of growing with lacturose as a carbon source.\nAs a result, the number of B. longum bacteria present of the tumor tissues in the tumor-bearing mouse group given lacturose was 200-times as more as that of the control group not given lacturose.", "data": [{"smiles": "OC[C@H]1O[C@@H](O[C@@H]2[C@@H](CO)OC(O)(CO)[C@H]2O)[C@H](O)[C@@H](O)[C@H]1O", "note": "(stereo partly drawn) [lacturose, 4-0-β-D-galactopyranosyl-D-fructofuranose]", "values": [{"measurement": "number of B. longum bacteria in tumor tissues of the group given lacturose relative to the control group not given lacturose", "result": 200, "unit": "times"}]}]}
